According to patent US20100112089A1, “PEPTIDE COMPOUND AND USE THEREOF” (Takeda Pharmaceutical Company Limited, priority 2008, published 2010):

Columns and labels:
[1] = tested on: NCI-H226 subcutaneous xenograft tumor; test: Subcutaneous tumor xenograft model; assay type: in vivo, SCID mice; settings: cisplatin 9 mg/kg
Experimental: A suspension of NCI-H226 cells was injected subcutaneously into the flanks of six weeks old male severe […] combined immune deficiency (SCID) mice (Charles River Lab., Wilmington, Mass.). The size of tumors was measured three times a week using a caliper. The volumes were calculated using the following formula: volume (cm^3)=[width^2 (mm)×length (mm)]/2000. The relative tumor volume was expressed as the Vt/V0 index, where Vt is the tumor volume on a measured day, and V0 is the volume of the same tumor just before the first treatment. Mean relative tumor sizes with standard error of mean, SEM, were plotted. Body weight was measured three times weekly from the first treatment, and the weight change was expressed as a percentage of the initial weight. Animals were housed in accordance with guidelines from the Association for the Assessment and Accreditation of Laboratory Animal Care International, and the protocols were approved by the institutional animal care committee of CanBas Co., Ltd.
The statistical significance of the differences of the relative tumor volume between groups was determined by Student's t tests.

[2] = tested on: NCI-H226 cells; assay type: cell-based; settings: bleomycin 2 μg/ml alone
Experimental: The cells were harvested and lysed in a lysis buffer [50 mM Tris-HCl (pH 8.0), 5 mM EDTA (pH 8.0), 100 mM NaCl, 0.5% NP-40, 2 mM DTT, 50 mM NaF, 1 mM Na3VO4, 1 μM microcystin, proteinase inhibitors cocktail (Roche, Mannheim, Germany)] for 30 min on ice and the lysates were clarified by centrifugation at 15,000 rpm for 20 min at 4° C. Protein concentration of the supernatants was evaluated using a detergent-compatible protein assay kit (Bio-Rad, Hercules, Calif.) according to the manufacturer's instructions. Whole cell lysates (60 μg) were run on a 10-12% SDS-PAGE gel, and transferred onto polyvinylidene difluoride (PVDF) membranes (Bio-Rad). The membrane was blocked at room temperature for 1 hr in TBST (0.1% Tween 20 in TBS) containing 2% ECL Advance Blocking Reagent (GE healthcare, Waukesha, Wis.) and incubated with primary antibody overnight at 4° C. The membrane was incubated with anti-peroxidase conjugated secondary antibody (Cell Signaling) for 1 hr at room temperature and analyzed using the enhanced chemiluminescence detection system (ECL Advance Western Blotting Detection Kit, GE healthcare).

[3] = tested on: NCI-H226 cells; test: Confocal immunofluorescence analysis of damage foci; assay type: cell-based; settings: bleomycin at 0.4 μg/ml alone
Experimental: The cells were fixed in ice-cold methanol at −20° C. for 20 min, and blocked with PBS containing 5% BSA for 45 min. Cells were then incubated with anti-γ-H2AX, anti-ATM p-Ser1981, anti-DNA-PKcs p-Thr2609, anti-NBS1 p-Ser343, or anti-SMC1 p-Ser957 antibodies overnight at 4° C., followed by incubation with Alexa 594-conjugated secondary antibody (Invitrogen, Carlsbad, Calif.) for 1 hr at room temperature in the dark. Cell nuclei were stained using Hoechst 33342. Fluorescence was visualized and analyzed using Becton Dickinson Pathway450. The intensity of the nuclei and number of foci was assessed by ATTOVision and IPLab software (Becton Dickinson), respectively.

| Compound | tumor growth [1] | phosphorylation of ATM (Ser1981), H2AX, CHK1 (Ser317), CHK2 (Thr68) [2] | foci formation (γ-H2AX, NBS1 p-Ser343, ATM p-Ser1981, SMC1 p-Ser957) [3] |
| --- | --- | --- | --- |
| N.N.[Cl][Pt][Cl] [cisplatin] | suppressed tumor growth |  |  |
| bleomycin |  | induced phosphorylation | only marginally increased foci formation |
